# Experimental data taken from patent publication US20230279379A1, “METHODS AND MICROFLUIDIC DEVICE FOR PRODUCING EXTRACELLULAR VESICLES” (THE BOARD OF TRUSTEES OF THE UNIVERSITY OF ILLINOIS, priority 2022, published 2023).
# Test system: CD63-K2S^+ MVBs in D1 mouse MSCs
# Assay: Intracellular CD63-K2S+ MVB transport by TIRF microscopy
# Assay type: cell-based
# Conditions: Arp2/3 inhibition by CK869
# Description: Lentiviral-Mediated Expression of CD63 Fused with Fluorescent Proteins. Katushka2S (far-red fluorescent protein) was fused with CD63 in a lentiviral expression vector (CD63-K2S vector) and expressed in D1 MSCs according to known methods. The sequence for pHLuorin2 (pH-sensitive green fluorescent protein) was synthesized by GenScript and exchanged with the Katushka2S in the same vector using restriction enzyme cloning. The resulting CD63-pHLuorin2 lentiviral vector was transduced in D1 MSCs in a similar method as the CD63-K2S vector. Cells were selected by treatment with 5 μg/mL puromycin over 3 days and confirmed to express fluorescent signal versus non-transduced cells.
# Total Internal Reflection Fluorescence (TIRF) Imaging of Cells on Substrates. To covalently bond crosslinked PEG-DA hydrogel to a thin glass surface, acrylate groups were attached to glass coverslips by silanization. […]
# CD63-Katushka2S Data Analysis. […] Intracellular bodies were determined using Gaussian smoothing and local background intensity thresholding (with automatically determined thresholds) to detect surfaces followed by tracking their position (x, y) over time (t). […] Multivescular body (MVB) area was computed for each time t and reported as the mean area across total track time T. Tracks were then analyzed via a custom MATLAB (R2017b, MathWorks) program. Track MSD was calculated as […]
structure (smiles),measurement,setting,value
COc1ccc(N2C(=O)CSC2c2cccc(Br)c2)c(OC)c1 (centres unmarked) [CK869],transport exponent α,,~0.5
same,"MVB transport (tracks, <MSD> vs t, D0.4s)",soft and stiff substrate,significantly enhanced transport on either substrate
